Residues, ends and D or L forms follow the SMILES beside them.
Key:
Assay type in all cases: biochemical, Streptomyces sp. NRRL S-515
[1] = system: PnaB; assay: PnaB ligation reactions (31P NMR, LC-HRMS); details: for conversion of dipeptide with PnAla into phosphonoalamide: role: substrate, dipeptide 3 mM, with PnAla 1 mM and ATP 3 mM, pH 9, 30° C
Description: (§1) These hypotheses were tested by overproducing and purifying recombinant PnaB and PnaC from E. coli for use in a series of biochemical assays. PnAla, Ala, and ATP were incubated with PnaB or PnaC and the reactions were monitored by ^31P NMR and LC-HRMS. […] To determine if either enzyme could convert Ala-Val into phosphonoalamide A, protein was removed from the PnaC reaction by ultrafiltration and Ala, ATP, and fresh PnaC or PnaB was added to the filtrate. LC-HRMS identified PnAla-Ala-Val as a product following the addition of PnaB, but not PnaC (FIG. 25A-FIG. 25C).
Biochemical assays of His6-PnaB. Typical reaction mixtures ([…]) contained 10 μM His6-PnaB, 3 mM ATP, 1 mM L-PnAla, 3 mM chemically synthesized L-Ala-L-Val, L-Val-L-Val, L-Ala-L-Ile, or L-Thr-L-Val in 50 mM Tris-HCl, 100 mM NaCl, 2 mM MgCl2 pH 9. Reactions were incubated at 30° C. for 2 hours, heat inactivated at 65° C. for 10 minutes, and then analyzed by NMR and LC-MS as described above.

[2] = system: PnaC; assay: PnaC dipeptide ligation reactions (LC-HRMS); details: for acceptance as carboxylate: role: substrate (carboxylate), 30° C, 16 hours; for nucleophiles accepted upon activation of the carboxylate: role: substrate (activated carboxylate)
Description: as §1
The ATP-Grasp ligases PnaC and PnaB underlie diversification of L-PnAla-containing oligopeptides. To understand the biochemical nature of this potential phosphonopeptide diversity, the substrate specificity of the dipeptide ligase PnaC was first delineated. Microscale biochemical reactions containing purified PnaC were performed with every combination of the 20 canonical amino acids and L-allo-threonine (231 total pairs of substrates). Reactions were analyzed by LC-HRMS to reveal putative dipeptides from 146 out of the 231 combinations. To distinguish residues in reactions containing isomeric pairs (e.g., Ile and Leu, Thr and allo-Thr) new reactions were prepared using ^15N-Ile and 4-^13C-2,3-D2-Thr as substrates. LC-HRMS/MS fragmentation analysis was then performed to verify all products and determine structures.
Biochemical assays of His6-PnaC. Typical reaction mixtures ([…]) contained 10 μM His6-PnaC, […], 3 mM of each L-amino acid, and 5 mM ATP in 50 mM Tris-HCl, 100 mM NaCl, 2 mM MgCl2 pH 9. Reactions were incubated at 30° C. for 16 hours, heat inactivated at 65° C. for 10 minutes, and then analyzed by LC-MS as described above.
(§2) Analysis of PnaC and PnaB substrate specificity reactions. An extracted ion chromatogram (EIC) was obtained for each potential product m z. The shape and retention time of each EIC were used to evaluate the quality and plausibility of true signals, and samples with low-confidence EICs were re-analyzed individually, to address the challenges of ion suppression (FIG. 31A-FIG. 31C) and background noise (FIG. 32A-FIG. 32D).

[3] = system: PnaB and PnaC; assay: One-pot tripeptide synthesis using PnaB and PnaC; details: for abundance of PnAla conjugate: role: substrate (dipeptide), with PnAla 1 mM and ATP 5 mM, one-pot with PnaC
Description: Having established the diversity of dipeptides produced by PnaC, the reaction specificity of PnaB was probed. PnaC was used to generate substrates for the ligation of PnAla by PnaB. Microscale reactions contained PnaB, PnaC, PnAla, and all pairs of amino acids shown to form dipeptides. LC-HRMS and fragmentation analysis was then used to identify and verify PnAla-containing tripeptides from these 80 reactions (FIG. 4B, Table 4, Table 5). Altogether, the combined enzyme system produced 97 distinct PnAla-tripeptides, 93 of which had not been previously isolated (FIG. 29 & FIG. 30).
Tripeptide synthesis assays using PnaB and PnaC. Reaction mixtures ([…]) contained 10 μM His6-PnaB, 10 μM His6-PnaC, 1 mM L-PnAla, 3 mM L-amino acid A, 3 mM L-amino acid B, and 5 mM ATP in 50 mM Tris-HCl, 100 mM NaCl, 2 mM MgCl2 pH 9. Reactions were incubated at 30° C. for 16 hours, heat inactivated at 65° C. for 10 minutes, and then analyzed by NMR and LC-MS as described above.
as §2

[4] = system: PnaA with PnaD; assay: PnaD-PnaA coupled forward reaction, 31P NMR (PEP to PnAla)
Description: Biochemical assays of His6-SUMO-PnaA with His6-PnaD. Typical reaction mixtures (300 μL) contained 20 μM His6-PnaD, 20 μM His6-SUMO-PnaA, 1.5 mM PEP, 3 mM L-Asp, 100 μM pyridoxal 5′-phosphate (PLP), and 2 mM MgCl2 in 50 mM HEPES, 150 mM NaCl, pH 7.5. Reactions were incubated at 30° C. for 2 hours, heat inactivated at 65° C. for 10 minutes, and then analyzed by ^31P NMR and LC-MS as described above.
Reactions in timecourse experiments ([…]) contained 10 μM His6-PnaD, 10 μM His6-SUMO-PnaA, 1.5 mM PEP, 10 mM L-Asp, 100 μM pyridoxal 5′-phosphate (PLP), and 2 mM MgCl2 in 50 mM HEPES, 150 mM NaCl, pH 7.5. Samples were where heat inactivated 1, 5, 10, 30, 60, 120, and 240 min after initiation and then analyzed by ^31P NMR as described above.
Reactions examining the effect of amino donor concentrations were the same as above, except they contained 1.5, 3, 5, or 10 mM of (L-Asp). Samples were heat inactivated after 120 min and then analyzed by ^31P NMR as described above.

[5] = system: PnaA; assay: PnaA reverse transamination reaction, 31P NMR/LC-MS (PnAla to PnPy); details: role: cofactor; additional PLP provided, with PnAla and OAA
Description: Biochemical assays of His6-SUMO-PnaA. Typical reaction mixtures (300 μL) contained 20 μM His6-SUMO-PnaA, 1.5 mM L-PnAla, 3 mM oxaloacetate, and 100 μM pyridoxal 5′-phosphate (PLP) in 50 mM HEPES, 150 mM NaCl, pH 7.5. Reactions were incubated at 30° C. for 2 hours, heat inactivated at 65° C. for 10 minutes, and then analyzed by NMR and LC-MS as described above.
Reactions in time course experiments (150 μL) contained 10 μM His6-SUMO-PnaA, 1.5 mM L-PnAla, 10 mM oxaloacetate (OAA), and 100 μM pyridoxal 5′-phosphate (PLP) in 50 mM HEPES, 150 mM NaCl, pH7.5. Samples were where heat inactivated 1, 5, 10, 30, 60, 120, and 240 min after initiation and then analyzed by ^31P NMR as described above.
Reactions examining the effect of keto-acid acceptor concentrations were the same as above, except they contained 1.5, 3, 5, or 10 mM of (OAA). Samples were heat inactivated after 120 min and then analyzed by ^31P NMR as described above.

[6] = system: PnaD and PnaA; assay: Coupled PnaD-PnaA kinetics: PEP conversion to L-PnAla, coupled to MDH/NADH oxidation; details: second substrate L-Asp 5 mM
Description: Apparent steady state parameters were also derived for the conversion of PEP to L-PnAla in reactions with equimolar amounts of PnaD and PnaA (FIG. 20A-FIG. 20B). […] The lower activity in the two-enzyme system is consistent with the slower rate of L-PnAla accumulation observed in the time course experiments (FIG. 16), reflects the unfavourability of PnPy formation [B30], and supports the general hypothesis that PepM activity is the limiting step in Pn biosynthetic pathways.
Kinetic analyses. All reactions (400 μL) were performed in 50 mM HEPES, 150 mM NaCl, pH 7.5, 30° C. using an Agilent Cary 300 spectrophotometer. The instrument was first blanked using the reaction containing the enzymes and the fixed substrate (without NADH). Initial rates were calculated from continual changes in absorbance (340 nm) before and after substrate addition. Data were analyzed using SigmaPlot 15.
Conversion of PEP and L-Asp to L-PnAla and OAA by His6-SUMO-PnaA and His6-PnaD. Each reaction contained 1 μM PnaA, 5 μM PnaD, 5 μM MDH, 200 uM NADH, 2 mM MgCl2, 5 mM L-Asp, and were initiated by the addition of 0.1, 0.2, 0.35, 0.5, 0.65, 0.8, or 1 mM PEP. PnaA was pre-incubated with PLP (1:5) on ice for 10 min prior to use.

[7] = role: substrate (PEP, 0.1-1 mM), MgCl2 2 mM, PnaD and PnaA coupled, pH 7.5, 30° C

With `Nc1ncnc2c1ncn2[C@@H]1O[C@H](COP(=O)(O)OP(=O)(O)OP(=O)(O)O)[C@@H](O)[C@H]1O` [ATP, reference compound] the ATP requirement ([1]; role: cofactor, ATP omitted) was “its omission abolished all activity” and the ATP requirement ([2]; role: cofactor, ATP omitted) was “its omission abolished all activity”.
For `CSCC[C@H](NC(=O)[C@H](Cc1c[nH]c2ccccc12)NC(=O)[C@@H](N)CP(=O)(O)O)C(=O)O` [PnAla-Trp-Met], the “product of Met + Trp reaction” value ([3]; role: product, two-enzyme system PnaBC, Met and Trp 3 mM each, ATP 5 mM) was “major species”.
For `C[C@H](N)C(=O)N[C@@H](C)C(=O)O` [Ala-Ala] (H-Ala-Ala-OH), the “abundance of PnAla conjugate” value [3] was “greatest abundance”.
`N=C(N)NCCC[C@H](N)C(=O)O` [arginine, Arginine] was tested, and the acceptance as carboxylate ([2]; with ATP) was “all but arginine and cysteine were accepted as carboxylates”.
With `N[C@@H](CC(=O)O)C(=O)O` [L-Asp, reference compound] the “amino donor dependence of PnAla formation” value ([4]; role: substrate (amino donor), with PEP, PLP) was “strictly dependent on L-Asp as the amino donor”.
`C[C@@H](O)[C@H](N)C(=O)O` [Thr, Threonine] was tested, and the “nucleophiles accepted upon activation of the carboxylate” value ([2]; with ATP) was “acceptance of Trp as a nucleophile, but not Thr or Pro”.
In the case of `CC(C)C[C@H](NC(=O)[C@H](C)N)C(=O)O` [Ala-Leu] (H-Ala-Leu-OH), the “abundance of PnAla conjugate” value [3] is reported as “greatest abundance”.
In the case of `N[C@@H](CS)C(=O)O` [cysteine, Cysteine], the acceptance as carboxylate ([2]; with ATP) is reported as “all but arginine and cysteine were accepted as carboxylates”.
In the case of `CSCC[C@H](N)C(=O)N[C@@H](Cc1c[nH]c2ccccc12)C(=O)O` [Met-Trp] (H-Met-Trp-OH), the “product of Met + Trp reaction” value ([2]; role: product, PnaC-only reaction, Met and Trp, ATP) is reported as “detected as the sole product”.
`Cc1ncc(COP(=O)(O)O)c(C=O)c1O` [PLP, pyridoxal 5′-phosphate, reference compound] was tested, and the “effect of PLP on PnAla formation” value ([4]; role: cofactor, without addition of PLP) was “enzyme activity was observed at significantly reduced amounts” and the “effect of PLP on PnPy formation” value [5] was “significantly greater PnPy was observed when additional PLP was provided”.
For `CC(C)[C@H](NC(=O)[C@@H](N)[C@@H](C)O)C(=O)O` [Thr-Val] (H-Thr-Val-OH), the “conversion of dipeptide with PnAla into phosphonoalamide” value (“conversion of dipeptide” for short) [1] was “respective conversion into phosphonoalamides B, C, and D”.
With `C=C(OP(=O)(O)O)C(=O)O` [PEP, phosphoenolpyruvate] the “catalytic efficiency lower than that of PnaA directly provided with PnPy (fold)” value ([6]; role: substrate (PEP), compared with PnPy) was 1,000 fold, the Km [6, 7] was 547 µM and the kcat [6, 7] was 0.084 s⁻¹.
In the case of `CC(C)[C@H](NC(=O)[C@H](C)N)C(=O)O` [Ala-Val] (H-Ala-Val-OH), the “dipeptide product of PnaC reaction (Ala + Val, ATP)” value ([2]; role: product, with Ala, Val, ATP) is reported as “product of the PnaC reaction” and the “abundance of PnAla conjugate” value [3] is reported as “greatest abundance”.
`CC[C@H](C)[C@H](NC(=O)[C@H](C)N)C(=O)O` [Ala-Ile] (H-Ala-Ile-OH) was tested, and the “conversion of dipeptide” value [1] was “respective conversion into phosphonoalamides B, C, and D” and the “abundance of PnAla conjugate” value [3] was “greatest abundance”.
In the case of `C[C@H](O)[C@H](N)C(=O)O` [allo-Thr, allothreonine], the “nucleophiles accepted upon activation of the carboxylate” value ([2]; with ATP) is reported as “both Thr and Pro as nucleophiles, to the exclusion of Trp”.
`CSCC[C@H](NC(=O)[C@H](C)N)C(=O)O` [Ala-Met] (H-Ala-Met-OH) was tested, and the “abundance of PnAla conjugate” value [3] was “greatest abundance”.
In the case of `C[C@H](N)C(=O)O` [Ala, Alanine], the “substrate preference (average ion intensity of dipeptides)” value ([2]; role: substrate, with ATP, LC-HRMS ion intensity) is reported as “average ion intensity nearly a magnitude larger than any other group”.
In the case of `CC(C)[C@H](N)C(=O)N[C@H](C(=O)O)C(C)C` [Val-Val] (H-Val-Val-OH), the “conversion of dipeptide” value [1] is reported as “respective conversion into phosphonoalamides B, C, and D”.

From patent publication US20260327260A1, “PHOSPHONOALANINE OLIGOPEPTIDES AND METHODS OF MAKING AND USE THEREOF” (priority 2023, published 2026)
